Measured values taken from article PMC4683533, “Discovery of novel INK4C small-molecule inhibitors to promote human and murine hematopoietic stem cell ex vivo expansion” (Scientific Reports, 2015).
Entries after “also recorded” stand apart in the source; their conditions may differ.

Experiments:
[1] = tested on: KG-1; assay: MTT proliferation assay on leukemia cell line; format: cell-based
Text: (§1) With confirmation of compound 40 promoting the expansion of HSCs, we further examined whether it might also increase the risk of malignant diseases. In order to determine the effect of compound 40 on hematological tumorigenesis, proliferation of both leukemia cell lines (KG-1 and KG-1a) and myeloma cell lines (MM.1S and RPMI 8226) was further investigated by a standard MTT assay.
(§2) To evaluate the toxicity of our top compounds, we performed a cell proliferation assay using 32D cells as well as leukemia cell lines and myeloma cell lines. Weihi-3 cells were cultured at 37 °C under 5% CO2 in RPMI 1640 medium supplemented with 10%FBS. After 48 h, the supernatant was collected and filtered. 32D cells were cultured in RPMI 1640 with 10% FBS and 10% supernatant collected from Weihi-3 cells. 8,000 32D cells or leukemia cell line (KG-1 or KG-1a) or myeloma cell line (MM.1S or RPMI 8226) were plated in a 96-well plate in 198 μL culture media per well, and then cultured (37 °C, 5% CO2) overnight. 2 μL of serially diluted compounds dissolved in saline or DMSO were added to each well and incubated (37 °C, 5% CO2) for 72 h. The concentration of DMSO was equal to the one in corresponding compound group. 20 μL of MTT solution was added to each well and then incubated (37 °C, 5% CO2) for 4 h. The percentage of cell survival was determined using the MTT assay, as previously described. The data was analyzed using GraphPad Prism v6.0.

[2] = tested on: KG-1a; assay: MTT proliferation assay on leukemia cell line; format: cell-based
Text: as §1, §2

[3] = tested on: LT-HSCs; assay: dependence of HSC expansion on CDK4/6 versus CDK2 (co-treatment with CDK inhibitors); format: cell-based, mouse
Text: To assess a direct role for p18-CDK6 signaling in HSCs expansion induced by compound 40, we used the CDK4/6-specific inhibitor PD0332991 to block CDK6 activation. As a control, we blocked CDK2 with SNS032, a CDK2 selective inhibitor. […] So here we wanted to explore whether p18SMI compound’s HSCs expansion effect was abrogated by CDK4/6 inhibitor or CDK2 inhibitor.

[4] = tested on: 32D cells; assay: MTT cell proliferation assay, general cytotoxicity; format: cell-based
Procedure: (§3) First, a cell-proliferation assay was performed on the immortalized myeloblast-like cell line 32D cells to evaluate general cytotoxicity. […] We also evaluated cytotoxicity using primary hematopoietic cells.
as §2

[5] = tested on: c-Kit enriched BM cells (primary hematopoietic cells); assay: apoptosis analysis by Annexin V staining; format: cell-based; details: effective concentration (20 μM), 5 days, compared with negative control group
Procedure: as §3
Figure 6 Cytotoxicity assessment of top p18SMI compounds. (A) Cell proliferation assay was performed on 32D cells to evaluate general cytotoxicity. The cell survival was determined by the MTT assay. (B) Apoptosis statistics analysis of cultured c-Kit enriched BM cells which were cultured with cytokine plus 20 μM compound 40 or DMSO. Uncultured bone marrow cells were irradiated by UV to serve as positive control. Apoptosis was checked by Annexin V staining on hematopoietic cells. (C,D) Proliferation effect of compound 40 on leukemia cell lines KG-1 and KG-1a. The cell survival was determined with the MTT assay. Data is mean ± SEM for all experiments of two or more and were performed in duplicate or triplicate.
c-Kit enriched BM cells were cultured for 5 days with cytokine combination plus compound 40 or DMSO. […] Apoptosis and cell death were measured by AnnexinV and DAPI staining according to the manufacturer’s instructions in the Annexin V-FITC Apoptosis Detection Kit (BD Biosciences). Apoptosis was measured on an FACS analyzer (LSR Fortessa, BD Biosciences). The data was analyzed using FlowJo software (Treestar, Inc.).

[6] = tested on: LT-repopulating HSCs (CD34-LKS cells); assay: competitive bone marrow transplantation (cBMT) assay; format: in vivo, mouse
Procedure: Figure 3 Treatment of c-Kit-enriched murine BM cells with p18SMI compounds enhances HSC expansion. (A) The average number of total cells, HSPCs (Lin^−Sca1^+) and long term (LT)-HSCs (Lin^-Sca1^+CD48^−CD150^+) were analyzed by flow cytometry. (B) Single CD34^−LKS cell were deposited into each well of a 96-well plate, along with differentiation medium plus different concentrations of p18SMI compounds to show the dose-response effect of p18SMI compounds. (C) CAFC-LDA assay of cells treated with XIE18-6, compound 40 and DMSO to reveal the frequency of primitive HSCs. Above data (A–C) is mean ± SEM for all experiments of two or more and were performed in duplicate or triplicate. (D) Experimental design for transplantation (n = 10). CD34^-LKS cells were sorted into 96-well plates at 50 cells/well and cultured for 3 days with cytokine plus 20 μM of compounds or DMSO. Cells from each well were mixed with 2 × 10^6 freshly isolated bone marrow MNCs and co-transplanted by tail-vein injection into lethally irradiated CD45.2 recipient mice. 16 weeks after transplantation, bone marrow MNCs were stained to determine the engraftment level of donor cells. Bone marrow MNCs were also stained for lineage analysis. Multi-lineage differentiation was examined by flow cytometry. GM, T and B indicate lineages for myeloid, T and B cells, respectively. (E,F) The engraftment levels at 16 weeks after primary transplantation, and multi-lineage differentiation profile. Data is mean ± SEM for all experiments (***p < 0.001, **p < 0.01). TEXT PRINTED IN THE PICTURE: (E) #40: Engrafment%: *** 5.93X | (E) XIE18-6: Engrafment%: ** 3.01X DOUBTS OF THE COPYIST ABOUT THIS PICTURE: Panel E: 5.93X and 3.01X are printed on brackets running from #40 and from XIE18-6 to DMSO. No measure is printed beside them, so the axis label 'Engrafment%' was used as the measure.
The increased frequency and total number of functional LT-HSCs after treatment with p18SMI compounds was further confirmed by competitive bone marrow transplantation (cBMT) assay (Fig. 3D). CD34^-LKS cells were first sorted and cultured w/o p18SMI compound for 3 days. Then the cultured cells were gathered and co-transplanted into lethally irradiated mice with competitor cells. […] Moreover, the engraftment of the group treated with compound 40 was double of that of the group treated with XIE18–6.

O=C([O-])c1ccc(S(=O)(=O)NC2CCCCC2)cc1.[Na+] [Compound 40, sodium 4-(N-cyclohexylsulfamoyl)benzoate]
enhancement of proliferation (MTT) ([1]; any concentration): did not enhance; also recorded: no activity | effect on leukemia cell line ([1]; high concentration (20 μM)): no effect | enhancement of proliferation (MTT) ([2]; any concentration): did not enhance; also recorded: no activity | effect on leukemia cell line ([2]; high concentration (20 μM)): no effect | number of LT-HSCs ([3]; in the PD0332991-treated group (CDK4/6-specific inhibitor)): failed to increase | number of LT-HSCs ([3]; in the SNS032-treated group (CDK2 selective inhibitor)): still enhanced | cytotoxicity toward 32D cells [4]: did not show significant cytotoxicity; also recorded: not cytotoxic | cytotoxic effects (cell viability, MTT) ([4]; 25 μM): did not show any cytotoxic effects | cell viability (MTT) ([4]; 50 μM, thought to be due to cytotoxicity of the solvent DMSO): only slight decreases in cell viability | cytotoxicity / apoptotic cell death in primary hematopoietic cells (HSCs) [5]: did not show significant cytotoxicity; also recorded: did not increase apoptotic cell death; also recorded: not cytotoxic | engraftment relative to the group treated with XIE18–6 ([6]; 16 weeks after transplantation): double | multi-lineage differentiation profile (GM, T, B) compared with the control group ([6]; 16 weeks after transplantation): did not cause predominant growth of any specific lineages | increase in engraftment compared with the DMSO control group ([6]; CD34-LKS cells cultured 3 days with 20 μM compound, co-transplanted with competitor cells into lethally irradiated mice, bone marrow 16 weeks after transplantation): 5.93 fold | increase in engraftment compared with the uncultured group ([6]; cells cultured 3 days with 20 μM compound, 16 weeks after transplantation): 4.34 fold
